{"source": "patent US20230372375A1", "about": "“SGLT-2 INHIBITOR SARCOSINE CO-CRYSTAL, PREPARATION METHOD THEREFOR AND USE THEREOF” (Beijing Creatron Institute of Pharmaceutical Research Co. …, priority 2020, published 2023)", "key": {"[1]": {"experiment": "Fluidity (angle of repose, bulk density, tap density)", "conditions": "BT-1000 powder comprehensive property tester"}, "[2]": {"experiment": "Comparison of sieving performance", "conditions": "30 g, 80 mesh sieve, 1400 rpm, 20 minutes"}, "[3]": {"experiment": "Particle size by laser particle size analyzer", "conditions": "water as a dispersant"}, "[4]": {"experiment": "Influencing factors test (physical and chemical stability) of dapagliflozin crystal forms, Test Example 1", "procedure": "The materials of the two crystal forms were directly exposed for 10 days to conditions of high temperature of 60° C.±2° C., light irradiation of 4500LX±500LX, and high humidity RH75%±5%, to investigate the physical stability and chemical stability of the two crystal forms."}, "[5]": {"experiment": "Influencing factors test (physical and chemical stability) of canagliflozin crystal forms, Test Example 2", "assay_type": "physicochemical", "set-up": "Impurity RRT0.73 content / Impurity RRT0.93 content / Impurity RRT1.12 content / Impurity RRT1.17 content / Impurity RRT2.25 content / Impurity RRT2.28 content / Impurity RRT0.57 content / Impurity RRT0.67 content: unit not given here", "method": "The canagliflozin-sarcosine cocrystal and canagliflozin hemihydrate (original crystal form) were tested for influencing factors."}, "[6]": {"conditions": "60° C., directly exposed 10 days"}, "[7]": {"conditions": "Light irradiation of 5000 Lx, 10 days"}, "[8]": {"conditions": "Directly exposed at 60° C. for 10 days"}, "[9]": {"conditions": "Directly exposed at 5000 LX for 10 days"}, "[10]": {"conditions": "Directly exposed at RH75% for 10 days"}, "[11]": {"conditions": "light irradiation of 5000LX for 10 days"}}, "note": "Values joined by “and” are separate entries in the source; they are usually repeats but may differ in a detail not shown here. Equal values may be shown once. Read-outs that look alike come from different tables or passages of the source.", "data": [{"smiles": "CCOc1ccc(Cc2cc([C@@H]3O[C@H](CO)[C@@H](O)[C@H](O)[C@H]3O)ccc2Cl)cc1.C[C@H](O)CO.O", "values": [{"measurement": "Angle of repose (°)", "setting": "[1]", "value": 48, "unit": "°"}, {"measurement": "Bulk density", "setting": "[1]", "value": 0.35, "unit": "g/mL"}, {"measurement": "Tap density", "setting": "[1]", "value": 0.53, "unit": "g/mL"}, {"measurement": "Average yield (%) after sieving", "setting": "[2]", "value": 86.0, "unit": "%"}, {"measurement": "Situations after sieving", "setting": "[2]", "value": "Almost no large particles but a"}, {"measurement": "Yield after sieving (%, n = 3), single runs", "setting": "[2]; listed as Dapagliflozin (S)-propylene glycol hydrate", "value": "85.2, % and 87.7, % and 84.9%"}, {"measurement": "D10 (μm)", "setting": "[3]", "value": 2.492, "unit": "μm"}, {"measurement": "D50 (μm)", "setting": "[3]", "value": 61.55, "unit": "μm"}, {"measurement": "D90 (μm)", "setting": "[3]", "value": 256.2, "unit": "μm"}, {"measurement": "Impurity 6 (RT 21.65 min, RRT 1.06) content", "setting": "[4]; 0 day", "value": 0.01}, {"measurement": "Impurity 7 (RT 22.01 min, RRT 1.07) content", "setting": "[4]; 0 day", "value": 0.01}, {"measurement": "Impurity 10 (RT 33.01 min, RRT 1.61) content", "setting": "[4]; 0 day", "value": 0.02}, {"measurement": "Impurity 11 (RT 33.72 min, RRT 1.65) content", "setting": "[4]; 0 day", "value": 0.01}, {"measurement": "Impurity 12 (RT 34.69 min, RRT 1.69) content", "setting": "[4]; 0 day", "value": 0.01}, {"measurement": "Impurity 13 (RT 39.10 min, RRT 1.91) content", "setting": "[4]; 0 day", "value": 0.02}, {"measurement": "Number of impurities", "setting": "[4]; 0 day", "value": 6}, {"measurement": "Property (appearance)", "setting": "[4]; 0 day", "value": "White"}, {"measurement": "Total content of impurities (%)", "setting": "[4]; 0 day", "value": 0.07, "unit": "%"}, {"measurement": "Impurity 1 (RT 7.45 min, RRT 0.36) content", "setting": "[4]; [6]", "value": 0.02}, {"measurement": "Impurity 2 (RT 10.46 min, RRT 0.51) content", "setting": "[4]; [6]", "value": 0.14}, {"measurement": "Impurity 3 (RT 14.06 min, RRT 0.69) content", "setting": "[4]; [6]", "value": 0.01}, {"measurement": "Impurity 4 (RT 14.62 min, RRT 0.71) content", "setting": "[4]; [6]", "value": 0.21}, {"measurement": "Impurity 5 (RT 16.02 min, RRT 0.78) content", "setting": "[4]; [6]", "value": 0.01}, {"measurement": "Impurity 6 (RT 21.65 min, RRT 1.06) content", "setting": "[4]; [6]", "value": 0.01}, {"measurement": "Impurity 7 (RT 22.01 min, RRT 1.07) content", "setting": "[4]; [6]", "value": 0.01}, {"measurement": "Impurity 8 (RT 27.17 min, RRT 1.33) content", "setting": "[4]; [6]", "value": 0.02}, {"measurement": "Impurity 9 (RT 30.53 min, RRT 1.49) content", "setting": "[4]; [6]", "value": 0.02}, {"measurement": "Impurity 10 (RT 33.01 min, RRT 1.61) content", "setting": "[4]; [6]", "value": 0.02}, {"measurement": "Impurity 11 (RT 33.72 min, RRT 1.65) content", "setting": "[4]; [6]", "value": 0.01}, {"measurement": "Impurity 12 (RT 34.69 min, RRT 1.69) content", "setting": "[4]; [6]", "value": 0.01}, {"measurement": "Impurity 13 (RT 39.10 min, RRT 1.91) content", "setting": "[4]; [6]", "value": 0.02}, {"measurement": "Number of impurities", "setting": "[4]; [6]", "value": 13}, {"measurement": "Property (appearance)", "setting": "[4]; [6]", "value": "Melted"}, {"measurement": "Total content of impurities (%)", "setting": "[4]; [6]", "value": 0.50, "unit": "%"}, {"measurement": "Impurity 6 (RT 21.65 min, RRT 1.06) content", "setting": "[4]; [7]", "value": 0.01}, {"measurement": "Impurity 7 (RT 22.01 min, RRT 1.07) content", "setting": "[4]; [7]", "value": 0.01}, {"measurement": "Impurity 10 (RT 33.01 min, RRT 1.61) content", "setting": "[4]; [7]", "value": 0.02}, {"measurement": "Impurity 11 (RT 33.72 min, RRT 1.65) content", "setting": "[4]; [7]", "value": 0.01}, {"measurement": "Impurity 12 (RT 34.69 min, RRT 1.69) content", "setting": "[4]; [7]", "value": 0.01}, {"measurement": "Impurity 13 (RT 39.10 min, RRT 1.91) content", "setting": "[4]; [7]", "value": 0.02}, {"measurement": "Number of impurities", "setting": "[4]; [7]", "value": 6}, {"measurement": "Total content of impurities (%)", "setting": "[4]; [7]", "value": 0.08, "unit": "%"}, {"measurement": "Impurity 6 (RT 21.65 min, RRT 1.06) content", "setting": "[4]; RH75%, 10 days", "value": 0.01}, {"measurement": "Impurity 7 (RT 22.01 min, RRT 1.07) content", "setting": "[4]; RH75%, 10 days", "value": 0.01}, {"measurement": "Impurity 10 (RT 33.01 min, RRT 1.61) content", "setting": "[4]; RH75%, 10 days", "value": 0.02}, {"measurement": "Impurity 11 (RT 33.72 min, RRT 1.65) content", "setting": "[4]; RH75%, 10 days", "value": 0.01}, {"measurement": "Impurity 12 (RT 34.69 min, RRT 1.69) content", "setting": "[4]; RH75%, 10 days", "value": 0.01}, {"measurement": "Impurity 13 (RT 39.10 min, RRT 1.91) content", "setting": "[4]; RH75%, 10 days", "value": 0.02}, {"measurement": "Number of impurities", "setting": "[4]; RH75%, 10 days", "value": 6}, {"measurement": "Total content of impurities (%)", "setting": "[4]; RH75%, 10 days", "value": 0.08, "unit": "%"}]}, {"smiles": "CNCC(=O)O.Cc1ccc([C@@H]2O[C@H](CO)[C@@H](O)[C@H](O)[C@H]2O)cc1Cc1ccc(-c2ccc(F)cc2)s1", "note": "[canagliflozin-sarcosine cocrystal]", "values": [{"measurement": "Solubility", "setting": "Acetate buffer of pH 4.0, 25° C., 12 h", "value": 32.65, "unit": "mg/mL"}, {"measurement": "Solubility", "setting": "Acetate buffer of pH 4.0, 25° C., 24 h", "value": 32.66, "unit": "mg/mL"}, {"measurement": "Solubility", "setting": "Artificial gastric juice, 25° C., 12 h", "value": 31.16, "unit": "mg/mL"}, {"measurement": "Solubility", "setting": "Artificial gastric juice, 25° C., 24 h", "value": 32.08, "unit": "mg/mL"}, {"measurement": "Solubility", "setting": "Artificial intestinal juice, 25° C., 12 h", "value": 30.35, "unit": "mg/mL"}, {"measurement": "Solubility", "setting": "Artificial intestinal juice, 25° C., 24 h", "value": 30.89, "unit": "mg/mL"}, {"measurement": "Solubility", "setting": "Citrate buffer of pH 3.0, 25° C., 12 h", "value": 33.87, "unit": "mg/mL"}, {"measurement": "Solubility", "setting": "Citrate buffer of pH 3.0, 25° C., 24 h", "value": 34.23, "unit": "mg/mL"}, {"measurement": "Solubility", "setting": "Hydrochloric acid of pH 1.0, 25° C., 12 h", "value": 34.92, "unit": "mg/mL"}, {"measurement": "Solubility", "setting": "Hydrochloric acid of pH 1.0, 25° C., 24 h", "value": 35.12, "unit": "mg/mL"}, {"measurement": "Solubility", "setting": "Phosphate buffer of pH 6.8, 25° C., 12 h", "value": 31.28, "unit": "mg/mL"}, {"measurement": "Solubility", "setting": "Phosphate buffer of pH 6.8, 25° C., 24 h", "value": 33.34, "unit": "mg/mL"}, {"measurement": "Solubility", "setting": "Water, 25° C., 12 h", "value": 35.12, "unit": "mg/mL"}, {"measurement": "Solubility", "setting": "Water, 25° C., 24 h", "value": 34.56, "unit": "mg/mL"}, {"measurement": "Solubility in different pH media", "setting": "summary over media, 25° C.", "value": "about 30 μg/ml"}, {"measurement": "Solubility in different pH media (words)", "setting": "summary over media, 25° C.", "value": "almost insoluble"}, {"measurement": "Impurity RRT0.57 content", "setting": "[5]; 0 day", "value": 0.01}, {"measurement": "Impurity RRT0.93 content", "setting": "[5]; 0 day", "value": 0.01}, {"measurement": "Impurity RRT2.25 content", "setting": "[5]; 0 day", "value": 0.01}, {"measurement": "Number of impurities", "setting": "[5]; 0 day", "value": 3}, {"measurement": "Property (appearance)", "setting": "[5]; 0 day", "value": "White"}, {"measurement": "Total content of impurities", "setting": "[5]; 0 day", "value": 0.03, "unit": "%"}, {"measurement": "Impurity RRT0.57 content", "setting": "[5]; [8]", "value": 0.01}, {"measurement": "Impurity RRT0.93 content", "setting": "[5]; [8]", "value": 0.01}, {"measurement": "Impurity RRT2.25 content", "setting": "[5]; [8]", "value": 0.01}, {"measurement": "Number of impurities", "setting": "[5]; [8]", "value": 3}, {"measurement": "Property (appearance)", "setting": "[5]; [8]", "value": "White"}, {"measurement": "Total content of impurities", "setting": "[5]; [8]", "value": 0.03, "unit": "%"}, {"measurement": "Impurity RRT0.57 content", "setting": "[5]; [9]", "value": 0.05}, {"measurement": "Impurity RRT0.73 content", "setting": "[5]; [9]", "value": 0.01}, {"measurement": "Impurity RRT0.93 content", "setting": "[5]; [9]", "value": 0.01}, {"measurement": "Impurity RRT1.12 content", "setting": "[5]; [9]", "value": 0.01}, {"measurement": "Impurity RRT2.25 content", "setting": "[5]; [9]", "value": 0.01}, {"measurement": "Number of impurities", "setting": "[5]; [9]", "value": 5}, {"measurement": "Property (appearance)", "setting": "[5]; [9]", "value": "White"}, {"measurement": "Total content of impurities", "setting": "[5]; [9]", "value": 0.09, "unit": "%"}, {"measurement": "Impurity RRT0.57 content", "setting": "[5]; [10]", "value": 0.01}, {"measurement": "Impurity RRT0.93 content", "setting": "[5]; [10]", "value": 0.01}, {"measurement": "Impurity RRT2.25 content", "setting": "[5]; [10]", "value": 0.01}, {"measurement": "Number of impurities", "setting": "[5]; [10]", "value": 3}, {"measurement": "Property (appearance)", "setting": "[5]; [10]", "value": "White"}, {"measurement": "Total content of impurities", "setting": "[5]; [10]", "value": 0.03, "unit": "%"}, {"measurement": "Crystal form stability (XRPD)", "setting": "[5]; each influencing factor for 10 days vs 0 day", "value": "did not change"}, {"measurement": "Number of impurities detected and total content of impurities detected, change", "setting": "[5]; high temperature 60° C. and high humidity of RH75% for 10 days vs 0 day", "value": "did not show an increasing trend"}, {"measurement": "Weight change", "setting": "[5]; high temperature of 60° C. and high humidity of RH75%", "value": "basically remained unchanged"}, {"measurement": "Maximum detected amount of new impurities", "setting": "[5]; [11]", "value": "about 0.05%"}, {"measurement": "New impurities detected (number)", "setting": "[5]; [11]", "value": 2}]}]}
